Test results taken from patent publication US20200199692A1, “LACTIC BACTERIA AND THE USE THEREOF FOR THE PREVENTIVE, INHIBITORY AND/OR REDUCTIVE TREATMENT OF THE FORMATION OF BACTERIAL BIOFILMS” (PROBIOTICAL S.P.A., priority 2016, published 2020).
≈ marks a conversion by molar mass, not a printed value. Like-named read-outs stand apart in the source and are kept apart here.

What was measured:
[1] = tested on: Lactobacillus plantarum LMC-1 ID 1952 DSM 32252; assay: Antibiotic resistance profile (E-test, ABBiodisk); assay type: cell-based
Commercial Lactobacillus = assay: Antibiotic resistance profile (E-test, ABBiodisk); assay type: cell-based
[2] = tested on: Commercial Bifidobacterium; assay: Antibiotic resistance profile (E-test, ABBiodisk); assay type: cell-based
[3] = tested on: Lactobacillus paracasei LMC-4 ID 1953 DSM 32254; assay: Antibiotic resistance profile (E-test, ABBiodisk); assay type: cell-based
[4] = tested on: Lactobacillus paracasei LMC-8 ID 1954 DSM 32258; assay: Antibiotic resistance profile (E-test, ABBiodisk); assay type: cell-based
Lactobacillus paracasei = conditions: Tables 8 and 12 (L. paracasei); Linezolid from EFSA 2005, Quinupristin/Dalfopristin from EFSA 2008; cited from earlier work
Lactobacillus plantarum = conditions: Table 4 (L. plantarum); Linezolid from EFSA 2005, Quinupristin/Dalfopristin from EFSA 2008; cited from earlier work
[5] = Lactiplantibacillus plantarum, DSM32252, Etest strips in agar, strain Lactobacillus plantarum LMC-1 ID 1952 DSM 32252, read-out: MIC
[6] = Etest strips in agar, Commercial Lactobacillus reference strain, read-out: MIC
[7] = Etest strips in agar, Commercial Bifidobacterium reference strain, read-out: MIC
[8] = Lacticaseibacillus paracasei, DSM32254, Etest strips in agar, strain Lactobacillus paracasei LMC-4 ID 1953 DSM 32254, read-out: MIC
[9] = Lacticaseibacillus paracasei, DSM32258, Etest strips in agar, strain Lactobacillus paracasei LMC-8 ID 1954 DSM 32258, read-out: MIC
[10] = Etest strips in agar, strain Lactobacillus plantarum LMC-1 ID 1952 DSM 32252
[11] = Etest strips in agar, Commercial Lactobacillus reference strain
[12] = Etest strips in agar, Commercial Bifidobacterium reference strain
[13] = Etest strips in agar, strain Lactobacillus paracasei LMC-4 ID 1953 DSM 32254
[14] = Etest strips in agar, strain Lactobacillus paracasei LMC-8 ID 1954 DSM 32258
[15] = Lacticaseibacillus paracasei, DSM32254
[16] = Lacticaseibacillus paracasei, DSM32258

Compound: [H]/N=C(/N)N[C@H]1[C@H](O)[C@@H](O)[C@H](O[C@@H]2O[C@@H](C)[C@](O)(C=O)[C@H]2O[C@@H]2O[C@@H](CO)[C@H](O)[C@@H](O)[C@@H]2NC)[C@@H](N/C(N)=N\[H])[C@@H]1O [Streptomycin]
- MIC [1, 5]: 16 µg/mL (≈ 27.5 µM)
- MIC (Commercial Lactobacillus; [6]): 12 µg/mL (≈ 20.6 µM)
- MIC [2, 7]: 64 µg/mL (≈ 110 µM)
- MIC [3, 8]: 12 µg/mL (≈ 20.6 µM)
- MIC [4, 9]: 24 µg/mL (≈ 41.3 µM)
- EFSA Limit 2012 (Lactobacillus paracasei): 64 µg/mL

Compound: CC1(C)S[C@@H]2[C@H](NC(=O)[C@H](N)c3ccc(O)cc3)C(=O)N2[C@H]1C(=O)O [Amoxicillin]
- MIC [1, 5]: 0.19 µg/mL (≈ 0.52 µM)
- MIC (Commercial Lactobacillus; [6]): 0.5 µg/mL (≈ 1.37 µM)
- MIC [2, 7]: 0.064 µg/mL (≈ 0.175 µM)
- MIC [3, 8]: 0.25 µg/mL (≈ 0.684 µM)
- MIC [4, 9]: 0.5 µg/mL (≈ 1.37 µM)

Compound: Gentamicin
- MIC [1, 10]: 4 µg/mL
- MIC (Commercial Lactobacillus; [11]): 6 µg/mL
- MIC [2, 12]: 48 µg/mL
- MIC [3, 13]: 2 µg/mL
- MIC [4, 14]: 4 µg/mL
- EFSA Limit 2012 (Lactobacillus plantarum): 16 µg/mL
- EFSA Limit 2012 (Lactobacillus paracasei): 32 µg/mL

Compound: CC[C@H]1OC(=O)[C@H](C)[C@@H](O[C@H]2C[C@@](C)(OC)[C@@H](O)[C@H](C)O2)[C@H](C)[C@@H](O[C@@H]2O[C@H](C)C[C@H](N(C)C)[C@H]2O)[C@](C)(O)C[C@@H](C)CN(C)[C@H](C)[C@@H](O)[C@]1(C)O [Azithromycin]
- MIC [1, 5]: 2 µg/mL (≈ 2.67 µM)
- MIC (Commercial Lactobacillus; [6]): 0.38 µg/mL (≈ 0.507 µM)
- MIC [2, 7]: 0.75 µg/mL (≈ 1 µM)
- MIC [3, 8]: 0.5 µg/mL (≈ 0.668 µM)
- MIC [4, 9]: 0.75 µg/mL (≈ 1 µM)

Compound: CO[C@@]1(NC(=O)Cc2cccs2)C(=O)N2C(C(=O)O)=C(COC(N)=O)CS[C@@H]21 [Cefoxitin]
- MIC [1, 5]: 64 µg/mL (≈ 150 µM)
- MIC (Commercial Lactobacillus; [6]): > 256 µg/mL
- MIC [2, 7]: 1 µg/mL (≈ 2.34 µM)
- MIC [3, 8]: > 256 µg/mL
- MIC [4, 9]: > 256 µg/mL

Compound: CC[C@H]1OC(=O)[C@H](C)[C@@H](O[C@H]2C[C@@](C)(OC)[C@@H](O)[C@H](C)O2)[C@H](C)[C@@H](O[C@@H]2O[C@H](C)C[C@H](N(C)C)[C@H]2O)[C@](C)(O)C[C@@H](C)C(=O)[C@H](C)[C@@H](O)[C@]1(C)O [Erythromycin]
- MIC [1, 5]: 0.75 µg/mL (≈ 1.02 µM)
- MIC (Commercial Lactobacillus; [6]): 0.032 µg/mL (≈ 0.0436 µM)
- MIC [2, 7]: 0.094 µg/mL (≈ 0.128 µM)
- MIC [3, 15]: 0.125 µg/mL (≈ 0.17 µM)
- MIC [4, 16]: 0.125 µg/mL (≈ 0.17 µM)
- EFSA Limit 2012 (Lactobacillus plantarum): 1 µg/mL
- EFSA Limit 2012 (Lactobacillus paracasei): 1 µg/mL

Compound: C[C@@H](O)[C@H]1C(=O)N2C(C(=O)O)=C(SCCN=CN)C[C@H]12 [Imipenem]
- MIC [1, 5]: 0.047 µg/mL (≈ 0.157 µM)
- MIC (Commercial Lactobacillus; [6]): 2 µg/mL (≈ 6.68 µM)
- MIC [2, 7]: 0.25 µg/mL (≈ 0.835 µM)
- MIC [3, 8]: 1.5 µg/mL (≈ 5.01 µM)
- MIC [4, 9]: 0.75 µg/mL (≈ 2.51 µM)

Compound: O=C(N[C@H](CO)[C@H](O)c1ccc([N+](=O)[O-])cc1)C(Cl)Cl [Cloramphenicol]
- MIC [1, 10]: 2 µg/mL (≈ 6.19 µM)
- MIC (Commercial Lactobacillus; [11]): 3 µg/mL (≈ 9.28 µM)
- MIC [2, 12]: 0.75 µg/mL (≈ 2.32 µM)
- MIC [3, 13]: 1.5 µg/mL (≈ 4.64 µM)
- MIC [4, 14]: 2.0 µg/mL (≈ 6.19 µM)
- EFSA Limit 2012 (Lactobacillus plantarum): 8 µg/mL
- EFSA Limit 2012 (Lactobacillus paracasei): 4 µg/mL

Compound: CCC[C@@H]1C[C@@H](C(=O)N[C@@H]([C@H]2O[C@H](SC)[C@H](O)[C@@H](O)[C@H]2O)[C@H](C)Cl)N(C)C1 [Clindamycin]
- MIC [1, 5]: 2 µg/mL (≈ 4.71 µM)
- MIC (Commercial Lactobacillus; [6]): 0.5 µg/mL (≈ 1.18 µM)
- MIC [2, 7]: 0.047 µg/mL (≈ 0.111 µM)
- MIC [3, 8]: 0.064 µg/mL (≈ 0.151 µM)
- MIC [4, 9]: 0.094 µg/mL (≈ 0.221 µM)

Compound: CN(C)[C@@H]1C(O)=C(C(N)=O)C(=O)[C@@]2(O)C(O)=C3C(=O)c4c(O)cccc4[C@@](C)(O)[C@H]3C[C@@H]12 [Tetracycline]
- MIC [1, 5]: 12 µg/mL (≈ 27 µM)
- MIC (Commercial Lactobacillus; [6]): 0.5 µg/mL (≈ 1.13 µM)
- MIC [2, 7]: 8 µg/mL (≈ 18 µM)
- MIC [3, 8]: 0.19 µg/mL (≈ 0.428 µM)
- MIC [4, 9]: 0.38 µg/mL (≈ 0.855 µM)

Compound: CC(=O)NC[C@H]1CN(c2ccc(N3CCOCC3)c(F)c2)C(=O)O1 [Linezolid]
- MIC [1, 5]: 1.5 µg/mL (≈ 4.45 µM)
- MIC (Commercial Lactobacillus; [6]): 2 µg/mL (≈ 5.93 µM)
- MIC [2, 7]: 0.38 µg/mL (≈ 1.13 µM)
- MIC [3, 8]: 0.38 µg/mL (≈ 1.13 µM)
- MIC [4, 9]: 1.5 µg/mL (≈ 4.45 µM)
- EFSA Limit 2012 (Lactobacillus plantarum): 4 µg/mL
- EFSA Limit 2012 (Lactobacillus paracasei): 4 µg/mL

Compound: CN[C@H](CC(C)C)C(=O)N[C@H]1C(=O)N[C@@H](CC(N)=O)C(=O)N[C@H]2C(=O)N[C@H]3C(=O)N[C@H](C(=O)N[C@H](C(=O)O)c4cc(O)cc(O)c4-c4cc3ccc4O)[C@H](O)c3ccc(c(Cl)c3)Oc3cc2cc(c3O[C@@H]2O[C@H](CO)[C@@H](O)[C@H](O)[C@H]2O[C@H]2C[C@](C)(N)[C@H](O)[C@H](C)O2)Oc2ccc(cc2Cl)[C@H]1O [Vancomycin]
- MIC ([1]; Lactiplantibacillus plantarum, DSM32252): > 256 µg/mL
- MIC (Commercial Lactobacillus; Lactobacillus): > 256 µg/mL
- MIC ([2]; Bifidobacterium): 0.38 µg/mL (≈ 0.262 µM)
- MIC [3, 15]: > 256 µg/mL
- MIC [4, 16]: > 256 µg/mL

Compound: O=C(O)c1cn(C2CC2)c2cc(N3CCNCC3)c(F)cc2c1=O [Ciprofloxacin]
- MIC [1, 5]: > 32 µg/mL
- MIC (Commercial Lactobacillus; [6]): 1 µg/mL (≈ 3.02 µM)
- MIC [2, 7]: 4 µg/mL (≈ 12.1 µM)
- MIC [3, 8]: 0.75 µg/mL (≈ 2.26 µM)
- MIC [4, 9]: 1 µg/mL (≈ 3.02 µM)

Compound: Quinupristin/Dalfopristin
- MIC [1, 10]: 0.38 µg/mL
- MIC (Commercial Lactobacillus; [11]): 1 µg/mL
- MIC [2, 12]: 0.25 µg/mL
- MIC [3, 13]: 0.094 µg/mL
- MIC [4, 14]: 0.25 µg/mL
- EFSA Limit 2012 (Lactobacillus plantarum): 4 µg/mL
- EFSA Limit 2012 (Lactobacillus paracasei): 4 µg/mL

Compound: NC[C@H]1O[C@H](O[C@H]2[C@H](O)[C@@H](O[C@H]3O[C@H](CO)[C@@H](O)[C@H](N)[C@H]3O)[C@H](N)C[C@@H]2N)[C@H](O)[C@@H](O)[C@@H]1O [Kanamycin]
- MIC [1, 5]: 64 µg/mL (≈ 132 µM)
- MIC (Commercial Lactobacillus; [6]): 128 µg/mL (≈ 264 µM)
- MIC [3, 8]: 24 µg/mL (≈ 49.5 µM)
- MIC [4, 9]: 64 µg/mL (≈ 132 µM)

Compound: CO[C@H]1/C=C/O[C@@]2(C)Oc3c(C)c(O)c4c(O)c(c(/C=N/N5CCN(C)CC5)c(O)c4c3C2=O)NC(=O)/C(C)=C\C=C\[C@H](C)[C@H](O)[C@@H](C)[C@@H](O)[C@@H](C)[C@H](OC(C)=O)[C@@H]1C [Rifampicin]
- MIC [1, 5]: 0.25 µg/mL (≈ 0.304 µM)
- MIC (Commercial Lactobacillus; [6]): 0.094 µg/mL (≈ 0.114 µM)
- MIC [2, 7]: 0.094 µg/mL (≈ 0.114 µM)
- MIC [3, 8]: 0.016 µg/mL (≈ 0.0194 µM)
- MIC [4, 9]: 0.032 µg/mL (≈ 0.0389 µM)

Compound: CC1(C)S[C@@H]2[C@H](NC(=O)[C@H](N)c3ccccc3)C(=O)N2[C@H]1C(=O)O [Ampicillin]
- MIC [1, 5]: 0.032 µg/mL (≈ 0.0916 µM)
- MIC (Commercial Lactobacillus; [6]): 0.5 µg/mL (≈ 1.43 µM)
- MIC [2, 7]: 0.016 µg/mL (≈ 0.0458 µM)
- MIC [3, 8]: 0.094 µg/mL (≈ 0.269 µM)
- MIC [4, 9]: 0.38 µg/mL (≈ 1.09 µM)
- EFSA Limit 2012 (Lactobacillus plantarum): 2 µg/mL
- EFSA Limit 2012 (Lactobacillus paracasei): 4 µg/mL

Compound: CO/N=C(\C(=O)N[C@@H]1C(=O)N2C(C(=O)O)=C(COC(N)=O)CS[C@H]12)c1ccco1 [Cefuroxime]
- MIC [1, 5]: 0.064 µg/mL (≈ 0.151 µM)
- MIC (Commercial Lactobacillus; [6]): 1.5 µg/mL (≈ 3.53 µM)
- MIC [2, 7]: 0.25 µg/mL (≈ 0.589 µM)
- MIC [3, 8]: 0.75 µg/mL (≈ 1.77 µM)
- MIC [4, 9]: 1 µg/mL (≈ 2.36 µM)

Compound: CC[C@H]1OC(=O)[C@H](C)[C@@H](O[C@H]2C[C@@](C)(OC)[C@@H](O)[C@H](C)O2)[C@H](C)[C@@H](O[C@@H]2O[C@H](C)C[C@H](N(C)C)[C@H]2O)[C@](C)(OC)C[C@@H](C)C(=O)[C@H](C)[C@@H](O)[C@]1(C)O [Clarithromycin]
- MIC [1, 5]: 0.25 µg/mL (≈ 0.334 µM)
- MIC (Commercial Lactobacillus; [6]): 0.047 µg/mL (≈ 0.0628 µM)
- MIC [2, 7]: 0.032 µg/mL (≈ 0.0428 µM)
- MIC [3, 8]: 0.047 µg/mL (≈ 0.0628 µM)
- MIC [4, 9]: 0.094 µg/mL (≈ 0.126 µM)
